test: gradient 5% acetonitrile 3 min, to 50% in 2 min, to 85% in 15 min, held 3 min, 100 µL/min; conditions: column: Zorbax Extend-C18 2.1 x 50 mm; eluents: water / acetonitrile, 0.1% formic acid
Summary of the method: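 Each retention time is based on an adduct peak selected computationally and verified by manual inspection. Measurements used HPLC–quadrupole time-of-flight mass spectrometry in positive and negative ionization mode on mixtures of ~100 pure standards. Chromatography ran on a Zorbax Extend-C18 column (2.1 × 50 mm, 1.8 μm) at 100 μL/min with water and acetonitrile, each containing 0.1% formic acid, and dead and dwell volumes of 40 μL and 900 μL.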

Compared with `Cc1ccc(-c2csc(NC(=O)CN3C(=O)c4ccccc4C3=O)n2)o1`, `O=C(Cn1cccc1-c1nc(-c2ccc3c(c2)OCO3)no1)Nc1ccccc1` is higher in RP-LC retention time: 852 s for the first, 1140 s for the second.

First: O=C(CN1C(=O)CC(c2ccccc2)S(=O)(=O)c2ccccc21)NC1CCCC1 (stereo unspecified)
Second: Cc1nnc(-c2ccc3ccn(CC(=O)NC4CCCC4)c3c2)o1
The RP-LC retention time of the first is higher: 831 s for the first, 740 s for the second.

First: CCn1nc(C)c(CCNC(=O)C(C)n2c3ccccc3c3cnn(C)c(=O)c32)c1C (stereo unspecified)
Second: Cc1nn(C(C)C(=O)NCCCN2CCN(C)CC2)c(=O)c2c1sc1ccccc12 (stereo unspecified)
The RP-LC retention time of the first is higher: 656 s for the first, 592 s for the second.

First: Cc1cc(NC(=O)C2CCN(C(=O)C3Sc4ccccc4NC3=O)CC2)ccc1Br (stereo unspecified)
Second: COc1ccc(NC(=O)C2CCN(S(=O)(=O)c3ccc4c(c3)sc(=O)n4C)CC2)cc1
The RP-LC retention time of the first is higher: 901 s for the first, 817 s for the second.

First: O=C(c1ccc2c(c1)OCO2)N1CCC2(CC1)NC(=O)N(Cc1cccc(Cl)c1)C2=O
Second: COc1ccc(C(=O)N2CCC3(CC2)NC(=O)c2ccc(F)cc2N3C)c(OC)c1
The RP-LC retention time of the first is higher: 840 s for the first, 715 s for the second.

Going from `COc1cccc(Cn2nc3c(S(=O)(=O)N4CCN(c5ccc(F)cc5)CC4)cccn3c2=O)c1` to `CC(C)c1csc(-c2csc(S(=O)(=O)N3CCN(c4ccccc4F)CC3)c2)n1`, the RP-LC retention time rises from 997 s to 1330 s.

First: Cn1nc(-c2nc(-c3ccc(F)cc3)no2)c2c1CCN(C(=O)NC(C)(C)C)C2
Second: CN1CCN(CCCNc2ccc(-c3nc(-c4ccc(F)cc4)no3)cn2)CC1
The RP-LC retention time of the first is higher: 966 s for the first, 626 s for the second.

First: COc1ccc(-c2ccc(/C=C3/SC(N4CCCCC4)=NC3=O)o2)cc1
Second: Cc1ccc(-n2c(N3CCCC(C(=O)NCCN4CCCCC4)C3)nc3ccsc3c2=O)cc1 (stereo unspecified)
The RP-LC retention time of the first is higher: 1020 s for the first, 617 s for the second.

First: CC(C)COC(=O)NCCc1nc2ccccc2[nH]1
Second: CCOC(=O)c1c(NCCC(C)C)c2cccc(Cl)c2[nH]c1=O
The RP-LC retention time of the first is lower: 556 s for the first, 890 s for the second.

Going from `Cc1cc(F)ccc1NC(=O)C1CCCN1S(=O)(=O)c1cc2c(cc1C)NC(=O)CO2` (stereo unspecified) to `COc1ccc(C)cc1NC(=O)NC1CCN(c2ccc(F)cc2)C1=O` (stereo unspecified), the RP-LC retention time rises from 761 s to 855 s.

First: CCc1nc(OCC(=O)N(CC)c2ccccc2)c2ccccc2n1
Second: CN(CCc1noc(COc2ccccc2F)n1)C(=O)c1ccccc1F
The RP-LC retention time of the first is lower: 798 s for the first, 889 s for the second.

First: COc1ccc(C2(C(=O)N3CCCC(c4nnnn4C)C3)CC2)cc1 (stereo unspecified)
Second: CCn1c(C(=O)N2CCCC(C(=O)N3CCN(c4ccc(OC)cc4)CC3)C2)cc2sccc21 (stereo unspecified)
The RP-LC retention time of the first is lower: 706 s for the first, 885 s for the second.

First: COc1ccc(-n2c(=O)c(C(=O)NCC3CCCO3)c(O)c3cccnc32)cc1 (stereo unspecified)
Second: Cc1nc(-c2cn(C)c3ncccc23)sc1C(=O)Nc1ccc(F)cc1
The RP-LC retention time of the first is lower: 947 s for the first, 1130 s for the second.

First: CC(C)S(=O)(=O)c1cc2c(cc1NC(=O)c1ccc(Cl)cc1)n(C)c(=O)n2C
Second: O=C(Nc1ccccc1)C1CCCN(S(=O)(=O)Cc2ccc(Cl)cc2)C1 (stereo unspecified)
The RP-LC retention time of the first is lower: 936 s for the first, 1010 s for the second.

Going from `c1cc(CN2CCN(c3cnn4c(C5CC5)nnc4c3)CC2)cs1` to `Cc1ccc(SCC(=O)N2CCN(c3ccccc3)CC2)cc1`, the RP-LC retention time rises from 558 s to 942 s.

First: C=CC1=C(C(=O)O)N2C(=O)[C@@H](NC(=O)/C(=N/OCC(=O)O)c3csc(N)n3)[C@H]2SC1
Second: Cc1nn(-c2ccccc2)c2c1N(CCCC(=O)N1CCOCC1)C(=O)CS2
The RP-LC retention time of the first is lower: 644 s for the first, 694 s for the second.

Going from `O=C(CCC1CCN(c2cc(NC3CC3)ncn2)CC1)NCc1cccnc1` to `CCNc1cc(N2CCC(CCC(=O)O)CC2)ncn1`, the RP-LC retention time rises from 548 s to 576 s.

First: CCOC(=O)c1c(C)[nH]c(C(=O)N2CCCC(C(=O)NCCN3CCCC3)C2)c1C (stereo unspecified)
Second: CCOC(=O)C1CCN(C(=O)C2CCCN(S(=O)(=O)c3ccc(OC)c(Cl)c3)C2)CC1 (stereo unspecified)
The RP-LC retention time of the first is lower: 603 s for the first, 940 s for the second.

Going from `Cc1nc2c(c(Nc3cc(C(=O)O)ccc3C)n1)CCC2` to `Cc1onc(-c2cccc(Br)c2)c1C(=O)NCCCN1CCOCC1`, the RP-LC retention time rises from 584 s to 629 s.

Going from `O=C(Nc1cccc(Cl)c1)C(=O)c1c[nH]c2ccccc12` to `Cc1ccn(-c2ccc(C(=O)Nc3ccccc3)cn2)n1`, the RP-LC retention time falls from 1040 s to 885 s.

First: CC(C)c1ccc(N2C(=O)CN(Cc3ccccc3)C3CS(=O)(=O)CC32)cc1 (stereo unspecified)
Second: O=C1CC(c2noc(-c3ccccc3)n2)CN1c1ccc(F)c(Cl)c1 (stereo unspecified)
The RP-LC retention time of the first is lower: 854 s for the first, 1070 s for the second.

First: Cc1nn(-c2ccc(Cl)cc2)c2nc(N3CCCC(C(=O)NCc4cccc(F)c4)C3)sc12 (stereo unspecified)
Second: O=C(Cc1nnc(-c2ccc3ncccc3c2)o1)NCc1ccc(F)c(Cl)c1
The RP-LC retention time of the first is higher: 1240 s for the first, 733 s for the second.

Going from `O=C(c1ccccc1Br)N1CCN=C1N1CCN(c2ccccc2F)CC1` to `CNC(=O)Nc1ccc(C2(C(=O)N3CCN(c4ccccc4F)CC3)CCC2)cc1`, the RP-LC retention time rises from 757 s to 799 s.

First: CN(C)c1ccc(NC(=O)Cn2cccc2-c2nc(-c3ccc4c(c3)OCO4)no2)cc1
Second: O=c1c2sccc2n(Cc2nc(-c3cccc(C(F)(F)F)c3)no2)c(=O)n1-c1ccccc1F
The RP-LC retention time of the first is lower: 752 s for the first, 1090 s for the second.

First: c1ccc(-c2csc(Nc3ncccn3)n2)nc1
Second: COc1ccccc1C(=O)Nc1cc(-c2ccccn2)no1
The RP-LC retention time of the first is lower: 594 s for the first, 980 s for the second.

First: CCn1cc2nc(SCc3cc(F)cc(F)c3)n(Cc3ccccc3F)c(=O)c2n1
Second: CSc1ccc(CNC(=O)Cn2nc(-n3cccc3)c3c(C)cc(C)nc32)cc1
The RP-LC retention time of the first is higher: 1150 s for the first, 1020 s for the second.

First: Cc1cccc(NC(=O)NCCc2cn(CC(C)C)c3ncccc23)c1C
Second: CCOc1ccccc1NC(=O)N1CCC(n2cnc3cccnc32)CC1
The RP-LC retention time of the first is higher: 839 s for the first, 686 s for the second.

Going from `O=C(O)c1nnn(-c2ccccc2)c1-c1ccccn1` to `Cc1cccn2cc(-c3cccc(S(=O)(=O)N4CCCCCC4)c3)nc12`, the RP-LC retention time rises from 657 s to 692 s.

Going from `CCOC(=O)c1ccc(N2C=C(C(=O)N3CCCC3)S(=O)(=O)c3ccc(F)cc32)cc1` to `CC1CCN(C(=O)C2=NNc3ccccc3S2(=O)=O)CC1`, the RP-LC retention time falls from 845 s to 740 s.

Compared with `CCCCNC(=O)C1CC(=O)N(CCc2c[nH]c3ccc(Cl)cc23)C1` (stereo unspecified), `CC1CCN(S(=O)(=O)c2ccc(-c3nnc(C(=O)NCCCN4CCCCCC4)o3)cc2)CC1` is lower in RP-LC retention time: 761 s for the first, 712 s for the second.

Compared with `O=C(NCC(O)c1ccsc1)c1ccc2nsnc2c1` (stereo unspecified), `O=C(Nc1cc(F)c2nc(N3CCOCC3)ccc2c1)c1cccs1` is higher in RP-LC retention time: 659 s for the first, 787 s for the second.

Going from `CN(CC(O)COc1ccc2c(c1)OCO2)C1CCCCC1` (stereo unspecified) to `O=C(C1CCCO1)N1CCC(OCc2nc(-c3ccncc3)no2)CC1` (stereo unspecified), the RP-LC retention time rises from 567 s to 585 s.

First: CCCN(C(=O)Cc1ccc(OC)c(OC)c1)c1nc(-c2ccc(C)cc2)cs1
Second: O=C(c1ccccc1F)N1CCN(S(=O)(=O)c2cc3c4c(c2)CCC(=O)N4CCC3)CC1
The RP-LC retention time of the first is higher: 1310 s for the first, 762 s for the second.

From the METLIN SMRT retention time set (Domingo-Almenara et al. 2019)
